For 103 molecules, cytotoxicity results are on record in ChEMBL document CHEMBL3507680, “University of Dundee, Gates Library screen for HepG2 cell viability”.

A short description of this data set: Human HepG2 cell viability assay in 384 well format. It is filed as toxicity, cell-based. Set-up: dose 125 nL, time 70.5 hour; cytotoxicity at 70.5 h: concentration not given beside the values. Particulars: HepG2 cells, read-out: Inhibition.
Take `O=C(C1CCCC1)N1CCC(c2ccnc(Nc3cnccn3)n2)C1` (stereo not drawn): the cytotoxicity at 70.5 h amounted to 15%. In the case of `CC(C)(N)C(=O)N1CCCC(c2cncc(Oc3cccnc3)n2)C1` (stereo not drawn) it was -3.9%. In the case of `Cc1ccc(-c2cccc(CC3(C(=O)O)CCOCC3)c2)c(C)c1` it was -5.38%.

For the molecule `CN(C)CCn1c([C@H]2CCCO2)cc2cccnc21`, the cytotoxicity at 70.5 h was -2.03%.

On to `Cc1ccc2c(c1)CN(C(=O)c1cccs1)C(CN(C)C)CO2` (stereo not drawn), for which the cytotoxicity at 70.5 h was -2.45%. In the case of `OC1(Cn2ccc3ncccc32)CCN(Cc2cccnc2)CC1` it was -2.24%; in that of `CCn1ncc(CN2CCC(O)(Cn3ccc4ncccc43)CC2)c1C`, -1.63%. In the case of `CC(C)C(=O)NC1CCCc2nc(N3CCOCC3)ncc21` (stereo not drawn), the cytotoxicity at 70.5 h was -0.959%. The result for `O=C(NC1CCCc2nc(N3CCOCC3)ncc21)C1CCCCC1` (stereo not drawn) reads 13.8%; that for `Cc1ccc(=O)n(CC2(O)CCN(Cc3ccoc3)CC2)n1`, -3.06%; that for `O=C(NC1CCCc2nc(N3CCCCC3)ncc21)C1CCCC1` (stereo not drawn), -4.53%.

For `Cc1ccccc1-c1cc(CC2(C(=O)O)CCOCC2)on1`, the cytotoxicity at 70.5 h is -6.86%.

On to `O=C(c1cccs1)N1CCCC(c2cc(C(F)F)n3ncnc3n2)C1` (stereo not drawn), for which the cytotoxicity at 70.5 h stood at 0.957%. The result for `O=C(O)C1(Cc2cc(-c3ccc(F)cc3)no2)CCOCC1` reads 8.42%. In the case of `OCC1CCCN(Cc2c(C3CCCC3)[nH]c3ncccc23)C1` (stereo not drawn) it was 13.9%. In the case of `COc1ccccc1CNc1ncc(-c2cc(C)no2)c(C(C)C)n1` it was -9.02%; in that of `CC(=O)NC1CCN(C(=O)Nc2ccc(SC(F)F)cc2)CC1`, -4.73%; in that of `O=C(Nc1ccc(-c2csnn2)cc1)N1CCC(N2CCCC2)C1` (stereo not drawn), -14.2%. On to `CCCC(C)(C)NC(=O)CCN1CCOC1=O`, for which the cytotoxicity at 70.5 h was 0.72%. The result for `CC(C)COC(=O)N1CCN(C(=O)c2ccc3nccn3c2)CC1` reads 30.9%; that for `COc1cccc(CC(C)NC(=O)c2ccc(CNC(C)=O)cc2)c1` (stereo not drawn), -2.82%. In the case of `CC(C)Cc1cc(C(=O)N2CCCN(c3ncccn3)CC2)[nH]n1` it was -1.63%; in that of `CC(C)CCC(=O)N1CCN(C(=O)c2ccc3nccn3c2)CC1`, 15.2%.

With `Cc1nccn1-c1ccc(CNS(=O)(=O)N2CCCC(C)C2)cn1` (stereo not drawn), the cytotoxicity at 70.5 h is -4.59%. The result for `Cc1nccn1-c1ccc(CNS(=O)(=O)N2CCC(C)CC2)cn1` reads 25.9%.

Regarding `CC1CN(C(=O)c2nccnc2N)c2ccc(F)cc2O1` (stereo not drawn), the cytotoxicity at 70.5 h came to 1.2%. On to `Cc1ccc2cccc(C(=O)NCC3CCN(C(C)C)C3)c2n1` (stereo not drawn), for which the cytotoxicity at 70.5 h is 12%. The result for `COc1cccc(CC(C)NC(=O)NCc2ccn(C)c2)c1` (stereo not drawn) reads 0.709%; that for `O=C(CCc1ccccn1)NC1CCN(c2cccc(Cl)c2)C1` (stereo not drawn), 39.6%; that for `CCOCC1CCN(C(=O)Nc2ccc(-c3csnn3)cc2)C1` (stereo not drawn), -11.9%. In the case of `Cc1ccc(CC(=O)NC2CCN(c3cccc(Cl)c3)C2)cn1` (stereo not drawn) it was 22.6%. The result for `O=C(c1cnc(NCc2sccc2Br)c(Cl)c1)N1CCCCC1` reads -9.35%; that for `CCNC(=O)NC(C)(C)C(=O)NCCc1csc2ccccc12`, 2.01%. Regarding `COc1cccc(CC(C)NC(=O)NCCc2cccnc2)c1` (stereo not drawn), the cytotoxicity at 70.5 h was -8.55%. With `O=C(Cc1cccc(O)c1)NC1CCN(c2cccc(Cl)c2)C1` (stereo not drawn), the cytotoxicity at 70.5 h is -3.87%. On to `O=C(NCCN1CCCCCC1)c1cccc(Cl)c1Cl`, for which the cytotoxicity at 70.5 h amounted to 1.51%. In the case of `Cc1nc(CNCc2ccc(N3CCN(C)CC3)nc2)cs1` it was 16.7%; in that of `COc1ccc(CNC(=O)c2ccc(=O)n(C)c2)cc1C`, -9.61%; in that of `CC(C)OCCC1CCCCN1S(N)(=O)=O` (stereo not drawn), 10.9%. The result for `COc1ccc(Cl)cc1CS(=O)(=O)CC(=O)NC(C)CCC(C)C` (stereo not drawn) reads -11.8%. In the case of `Cc1ccc(N2N=C(C(=O)N(C)Cc3ccco3)NCC2=O)cc1` it was 4.87%; in that of `COc1ccc(C(O)CNC(=O)Cn2ccc(=O)n(C)c2=O)cc1` (stereo not drawn), -5.99%. Regarding `CCN(C(=O)C1=NN(c2ccccc2)C(=O)CN1)c1ccccc1`, the cytotoxicity at 70.5 h was -2.62%. Take `CNC(=O)C1CCCCN1C(=O)c1sc(-c2ccc(C)o2)nc1C` (stereo not drawn): the cytotoxicity at 70.5 h was 3.27%. The result for `CNC(=O)C1CCCCN1C(=O)c1csc(-c2ccccc2)n1` (stereo not drawn) reads -9.17%; that for `NC(=O)C(NCCc1ccc(Cl)s1)c1ccccc1` (stereo not drawn), -11.4%; that for `Cc1nc(-c2ccncc2)nc(N(C)CCc2ccncc2)c1C`, 4.43%. The result for `O=C(CCNC(=O)C1=Cc2ccccc2OC1)NCc1ccncc1` reads -2.01%; that for `CS(=O)(=O)CCC(=O)N1CCC(c2cccc(F)c2)C1` (stereo not drawn), 5.28%; that for `CCOCCNCC1CCN(CCO)CC1`, -3.07%. The result for `COc1nc(N2CCN(C(C)=O)CC2)ncc1Br` reads -3.12%; that for `Cc1nonc1NC(=O)CCn1cc(Br)ccc1=O`, 6.64%. With `CCOc1cc(CNc2cc(-c3nc(C)no3)ccn2)ccc1OC`, the cytotoxicity at 70.5 h stood at 1.28%. The result for `CNC(=O)Cc1noc(-c2cc3c(s2)CCCCCC3)n1` reads -7.62%. In the case of `CNS(=O)(=O)CC(=O)N1CCC(c2ccc(F)c(F)c2)CC1` it was 0.695%. The result for `CCC1COCCN1C(=O)CNC(=O)c1ccsc1` (stereo not drawn) reads -8.2%; that for `CC(NS(=O)(=O)N(C)C(C)C)C(=O)N(C)C` (stereo not drawn), -4.6%; that for `CN(CCOCC(F)(F)F)CC1CCN(CCO)CC1`, 16.2%. As to `CCCN(CCC)S(=O)(=O)NC(C)C(=O)N(C)C` (stereo not drawn), the cytotoxicity at 70.5 h is -6.45%. The result for `CC(O)CN1CCC(CNCCOCC(F)(F)F)CC1` (stereo not drawn) reads -7.95%. In the case of `OCCN1CCC(CNCCOCC(F)(F)F)CC1` it was 3.98%; in that of `O=C(COC1CCOC1)N(CC(F)F)c1cccc(Cl)c1` (stereo not drawn), -3.13%. Take `O=C(CCNCc1cccc(O)c1)N1CCc2sccc2C1`: the cytotoxicity at 70.5 h is -7.91%.

As to `CS(=O)(=O)NCCCn1ccc2ccccc21`, the cytotoxicity at 70.5 h is -13.2%. `CCS(=O)(=O)CC(=O)Nc1ccccc1N1CCc2ccccc21`: the cytotoxicity at 70.5 h was -13.2%.

Consider `CC(C)NC(=O)c1ccc(NC(=O)NC(C)c2ccccn2)cc1` (stereo not drawn), for which the cytotoxicity at 70.5 h was 19.1%. As for `CC(C)n1cnnc1CNC(=O)CCCOc1ccccc1Cl`, the cytotoxicity at 70.5 h is -6.43%. On to `CC(C)n1cnnc1CNC(=O)CCCOc1ccccc1F`, for which the cytotoxicity at 70.5 h was -11.9%.

For the molecule `Cc1nc(CN(C)C(=O)CNC(=O)c2ccc(C#N)cc2)cs1`, the cytotoxicity at 70.5 h is -8.22%. On to `CN(C)Cc1nc(C(C)(C)NC(=O)c2cccc3ccccc23)no1`, for which the cytotoxicity at 70.5 h was -7.53%.

Turning to `CC(C)(C)C(=O)NCC(=O)NCC1CCCS1` (stereo not drawn), the cytotoxicity at 70.5 h was -10.6%. As for `Fc1cccc(C(NCc2ncc[nH]2)c2ccccc2)c1` (stereo not drawn), the cytotoxicity at 70.5 h is -3.27%.

Turning to `CC(C)(C)CC(=O)NCC1CCCS1` (stereo not drawn), the cytotoxicity at 70.5 h was -8.2%. As to `Cc1ccc(OCC(=O)NC2(C#N)CCSCC2)cc1C`, the cytotoxicity at 70.5 h is -10.6%. The result for `CN1CCN(c2ccc(NCc3ccsc3)cn2)CC1` reads -8.79%; that for `CN1CCN(c2ccc(NCc3ccc([S+](C)[O-])cc3)cn2)CC1` (stereo not drawn), -0.416%; that for `CNC(=O)NCC(=O)Nc1ccccc1N1CCc2ccccc21`, -3.43%. As for `N#Cc1cc(C(F)(F)F)ccc1NCC1CCS(=O)(=O)CC1`, the cytotoxicity at 70.5 h amounted to 16.6%. In the case of `Cc1nc(NS(=O)(=O)c2ccc(C)c(Br)c2)no1` it was -12.1%; in that of `COc1ccc(CN(C(=O)C2CCCO2)c2ccncc2)cc1` (stereo not drawn), -8.37%. As to `N#Cc1cccc(CNCCC(=O)N2CCc3sccc3C2)c1`, the cytotoxicity at 70.5 h was -3.34%. The result for `CCc1nnsc1C(=O)NC(CC(C)C)C(=O)OC` (stereo not drawn) reads -7.11%; that for `Cc1nc(-c2ccco2)ccc1C(=O)NCCCN1CCOCC1`, -98.3%. The result for `Cc1nnc(SCc2cccc(F)c2)n1CC(N)=O` reads -125%; that for `COc1cccc(CSc2nnc(C)n2CC(N)=O)c1`, -98.4%. The result for `Cc1nc(CC(=O)NS(=O)(=O)c2cccc3cnccc23)cs1` reads -110%; that for `CCn1nc(C)c(C(=O)N2CCC(Nc3ccc(C)nn3)CC2)c1C`, -106%. Take `O=C(OCC1CCN(c2ccccc2)C1)c1cscn1` (stereo not drawn): the cytotoxicity at 70.5 h is -103%.

Turning to `CCn1c(C)cc(C(=O)N2CCC(NC(=O)c3ccc(C)o3)CC2)c1C`, the cytotoxicity at 70.5 h is -89.5%. The result for `Cc1ncsc1C(=O)OCC1CCN(c2ccccc2)C1` (stereo not drawn) reads -97.5%.

Take `CS(=O)(=O)CCN1CCC(Nc2c(Cl)cccc2C#N)CC1`: the cytotoxicity at 70.5 h is -94%. The result for `CNS(=O)(=O)CC(=O)N1CCCc2cc(C(C)C)ccc21` reads -98.6%. The result for `Cc1ccc(C(=O)N2CCC3(CCCCC3)C2)c(=O)[nH]1` reads -105%; that for `NC(=O)C1=NN2C(=NS(=O)(=O)c3ccccc32)N1`, -106%; that for `Cn1cccc1C(=O)NC(C)(C(N)=O)c1cccc(C(F)(F)F)c1` (stereo not drawn), -55.1%. The result for `COc1ccc(CNC(=O)N(C)CC(C)(C)O)cc1OC` reads -109%. In the case of `O=C(Cc1csc(-c2ccccn2)n1)NCCCN1CCCCCC1=O`, the cytotoxicity at 70.5 h is -76.6%. The result for `c1cnc2c(c1)cc([C@@H]1CCCO1)n2CCN1CCCCC1` reads 0.422%. In the case of `c1cnc2[nH]c(C3CCCNC3)c(CN3CCCOCC3)c2c1` (stereo not drawn) it was -5.16%.

On to `CNC(=O)C1(CCCc2ccncc2)CCN1` (stereo not drawn), for which the cytotoxicity at 70.5 h is -9.29%.

Regarding `COc1ccc(CN(Cc2c[nH]cn2)CC2CCCO2)c(OC)c1` (stereo not drawn), the cytotoxicity at 70.5 h was -3.26%. With `COc1ccc(CN(Cc2cncn2C)CC2CCCO2)cc1` (stereo not drawn), the cytotoxicity at 70.5 h is -7.47%. In the case of `COc1cccc(CN2C[C@@H]3CC[C@@](O)(c4ccccn4)[C@@H]3C2)c1OC` it was 12.8%.
